Measured values reported in ChEMBL document CHEMBL1833951, “Diterpenes from the Hainan soft coral Lobophytum cristatum Tixier-Durivault” (J Nat Prod, 2011).

Tests used:
A549 = experiment: Cytotoxicity against human A549 cells by MTT assay; type: functional, cell-based
HCT-116 = experiment: Cytotoxicity against human HCT116 cells by SRB assay; type: functional, cell-based

Row | SMILES | IC50 (A549) [µM] | IC50 (HCT-116) [µM]
1 | C=C(CCC=C(C)C)[C@H]1CC[C@]2(C)CCCC(=C)[C@H]2C1 [LOBOPHYTUMIN C] | 35.7 | 37.1
2 | C=C(CCC=C(C)C)[C@H]1CC[C@@]2(C)CCC=C(C)[C@@H]2C1 [LOBOPHYTUMIN D] | 36.7 | 35.7
3 | COC(=O)Nc1nc2cc(C(=O)c3cccs3)ccc2[nH]1 [NOCODAZOLE] | 0.087 | 0.173
